According to US20240398828A1, “HETERO-ATOM CONTAINING COMPOUNDS AND USES THEREOF” (Kumquat Biosciences Inc., priority 2021, published 2024):

Legend:
PTPN2 (i.e., TC-PTP) = target: T1, PTPN2 (i.e., TC-PTP) (Homo sapiens, UniProt P17706); experiment: Phosphatase activity assay (DiFMUP substrate), PTPN2; assay type: biochemical; conditions: compounds binned ≤1 uM or >1 uM
T1 sequence (P17706 1-415): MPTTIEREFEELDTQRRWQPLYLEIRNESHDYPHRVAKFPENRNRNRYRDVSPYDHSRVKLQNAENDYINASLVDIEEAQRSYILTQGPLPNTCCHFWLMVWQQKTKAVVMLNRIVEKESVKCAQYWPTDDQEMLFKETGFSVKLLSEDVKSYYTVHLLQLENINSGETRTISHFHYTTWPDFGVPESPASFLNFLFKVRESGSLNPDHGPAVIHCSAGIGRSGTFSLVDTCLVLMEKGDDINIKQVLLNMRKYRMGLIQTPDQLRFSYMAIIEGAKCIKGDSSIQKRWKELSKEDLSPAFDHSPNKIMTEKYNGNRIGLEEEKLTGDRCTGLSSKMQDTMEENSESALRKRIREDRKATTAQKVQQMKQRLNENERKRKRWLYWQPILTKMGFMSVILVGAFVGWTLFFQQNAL
In short: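 Using a Km-level DiFMUP substrate and 0.025 ng/ul PTPN2, phosphatase activity is tracked by DiFMU emission at 450 nm over about 15–30 minutes. Initial rates at ten inhibitor concentrations give IC50 by four-parameter fitting.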

PTPN1 (i.e., PTP1B) = target: T2, PTPN1 (i.e., PTP1B) (Homo sapiens, UniProt P18031); experiment: Phosphatase activity assay (DiFMUP substrate), PTP1B; assay type: biochemical; conditions: compounds binned ≤1 uM or >1 uM
T2 sequence (P18031 1-435): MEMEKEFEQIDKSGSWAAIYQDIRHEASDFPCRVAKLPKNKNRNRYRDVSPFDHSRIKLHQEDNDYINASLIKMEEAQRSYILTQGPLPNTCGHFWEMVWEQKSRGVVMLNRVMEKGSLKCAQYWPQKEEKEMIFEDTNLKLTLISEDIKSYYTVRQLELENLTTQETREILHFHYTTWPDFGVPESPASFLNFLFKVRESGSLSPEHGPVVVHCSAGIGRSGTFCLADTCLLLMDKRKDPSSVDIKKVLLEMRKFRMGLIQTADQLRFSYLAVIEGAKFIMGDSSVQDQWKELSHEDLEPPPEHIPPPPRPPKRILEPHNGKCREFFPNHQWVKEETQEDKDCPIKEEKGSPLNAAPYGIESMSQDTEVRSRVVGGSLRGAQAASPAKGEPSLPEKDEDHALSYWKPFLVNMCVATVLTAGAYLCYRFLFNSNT
In short: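 Enzyme (e.g. PTPN2 0.025 ng/ul) mixed about 2 min with compound at 10 serial concentrations in 50 mM HEPES pH 7.5, 150 mM NaCl, 0.5 mM EDTA, 1 mM DTT, 0.001% Tween-20 at room temperature. DiFMUP added at each enzyme's Km (about 45 μM for PTPN2). DiFMU fluorescence (ex 360/em 450 nm) followed 15-30 min; IC50 from 4-parameter fit of rates.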

**Q.** What does the source list for O=C1CN(c2c(O)ccc(-c3cn(C4CC4(F)F)[nH]c3=O)c2F)S(=O)(=O)N1 (stereo not shown) [Compound 500, 5-(3-(1-(2,2-difluorocyclopropyl)-3-oxo-2,3-dihydro-1H-pyrazol-4-yl)-2-fluoro-6-hydroxyphenyl)-1,2,5-thiadiazolidin-3-one 1,1-dioxide]?
**A.** IC50 (PTPN2 (i.e., TC-PTP)): ≤ 1000 nM; IC50 (PTPN1 (i.e., PTP1B)): ≤ 1000 nM

**Q.** Which IC50 (PTPN2 (i.e., TC-PTP)) does the source give for O=C1CN(c2c(O)ccc(-c3cc(C4CC4CO)n[nH]3)c2F)S(=O)(=O)N1 (stereo not shown) [Compound 501, 5-(2-fluoro-6-hydroxy-3-(3-(2-(hydroxymethyl)cyclopropyl)-1H-pyrazol-5-yl)phenyl)-1,2,5-thiadiazolidin-3-one 1,1-dioxide] here?
**A.** ≤ 1000 nM

**Q.** What about the IC50 (PTPN1 (i.e., PTP1B)) of the same compound?
**A.** ≤ 1000 nM

**Q.** What does the source list for N=C(N)N1CC=C(c2ccc(O)c(N3CC(=O)NS3(=O)=O)c2F)C1 [Compound 502, 3-(3-(1,1-dioxido-4-oxo-1,2,5-thiadiazolidin-2-yl)-2-fluoro-4-hydroxyphenyl)-2,5-dihydro-1H-pyrrole-1-carboximidamide]?
**A.** IC50 (PTPN2 (i.e., TC-PTP)): ≤ 1000 nM; IC50 (PTPN1 (i.e., PTP1B)): ≤ 1000 nM

**Q.** What does the source list for Cn1cc(-c2ccc(O)c(N3CC(=O)NS3(=O)=O)c2F)nc1N [Compound 503, 5-(3-(2-amino-1-methyl-1H-imidazol-4-yl)-2-fluoro-6-hydroxyphenyl)-1,2,5-thiadiazolidin-3-one 1,1-dioxide]?
**A.** IC50 (PTPN2 (i.e., TC-PTP)): ≤ 1000 nM; IC50 (PTPN1 (i.e., PTP1B)): ≤ 1000 nM

**Q.** How did the IC50 (PTPN2 (i.e., TC-PTP)) turn out when C[C@H]1C=C(c2ccc(O)c(N3CC(=O)NS3(=O)=O)c2F)CN1 [Compound 504, (S)-5-(2-fluoro-6-hydroxy-3-(5-methyl-2,5-dihydro-1H-pyrrol-3-yl)phenyl)-1,2,5-thiadiazolidin-3-one 1,1-dioxide] was run?
**A.** ≤ 1000 nM

**Q.** And the IC50 (PTPN1 (i.e., PTP1B))?
**A.** ≤ 1000 nM

**Q.** For O=C1CN(c2c(O)ccc(-c3cnn(C(=O)N4CC(F)(F)C4)c3)c2F)S(=O)(=O)N1 [Compound 505, 5-(3-(1-(3,3-difluoroazetidine-1-carbonyl)-1H-pyrazol-4-yl)-2-fluoro-6-hydroxyphenyl)-1,2,5-thiadiazolidin-3-one 1,1-dioxide], which IC50 (PTPN2 (i.e., TC-PTP)) is on record?
**A.** ≤ 1000 nM

**Q.** What about the IC50 (PTPN1 (i.e., PTP1B)) of the same compound?
**A.** ≤ 1000 nM

**Q.** CCn1cc(-c2ccc(O)c(N3CC(=O)NS3(=O)=O)c2F)c(F)n1 [Compound 506, 5-(3-(1-ethyl-3-fluoro-1H-pyrazol-4-yl)-2-fluoro-6-hydroxyphenyl)-1,2,5-thiadiazolidin-3-one 1,1-dioxide] was tested. Which IC50 (PTPN2 (i.e., TC-PTP)) did it give?
**A.** ≤ 1000 nM

**Q.** What about the IC50 (PTPN1 (i.e., PTP1B)) of the same compound?
**A.** ≤ 1000 nM

**Q.** With O=C1CN(c2c(O)ccc(-c3c[nH]nc3F)c2F)S(=O)(=O)N1 [Compound 507, 5-(2-fluoro-3-(3-fluoro-1H-pyrazol-4-yl)-6-hydroxyphenyl)-1,2,5-thiadiazolidin-3-one 1,1-dioxide] as the compound, how does the IC50 (PTPN2 (i.e., TC-PTP)) read?
**A.** ≤ 1000 nM

**Q.** What about the IC50 (PTPN1 (i.e., PTP1B)) of the same compound?
**A.** ≤ 1000 nM

**Q.** Which IC50 (PTPN2 (i.e., TC-PTP)) does the source give for O=C1CN(c2c(O)ccc(-c3cc(C4CC4(F)F)n(CC(F)F)n3)c2F)S(=O)(=O)N1 (stereo not shown) [Compound 508, 5-(3-(5-(2,2-difluorocyclopropyl)-1-(2,2-difluoroethyl)-1H-pyrazol-3-yl)-2-fluoro-6-hydroxyphenyl)-1,2,5-thiadiazolidin-3-one 1,1-dioxide] here?
**A.** ≤ 1000 nM

**Q.** And the IC50 (PTPN1 (i.e., PTP1B))?
**A.** ≤ 1000 nM

**Q.** With O=C1CN(c2c(O)ccc(-c3cn(C(F)F)nc3F)c2F)S(=O)(=O)N1 [Compound 509, 5-(3-(1-(difluoromethyl)-3-fluoro-1H-pyrazol-4-yl)-2-fluoro-6-hydroxyphenyl)-1,2,5-thiadiazolidin-3-one 1,1-dioxide] as the compound, how does the IC50 (PTPN2 (i.e., TC-PTP)) read?
**A.** ≤ 1000 nM

**Q.** And the IC50 (PTPN1 (i.e., PTP1B))?
**A.** ≤ 1000 nM

**Q.** Which IC50 (PTPN2 (i.e., TC-PTP)) does the source give for O=C1CN(c2c(O)ccc(-c3cnn(CCC(F)F)c3)c2F)S(=O)(=O)N1 [Compound 510, 5-(3-(1-(3,3-difluoropropyl)-1H-pyrazol-4-yl)-2-fluoro-6-hydroxyphenyl)-1,2,5-thiadiazolidin-3-one 1,1-dioxide] here?
**A.** ≤ 1000 nM

**Q.** And the IC50 (PTPN1 (i.e., PTP1B))?
**A.** ≤ 1000 nM

**Q.** What does the source list for O=C1CN(c2c(O)ccc(C3=CCCNC3)c2F)S(=O)(=O)N1 [Compound 511, 5-(2-fluoro-6-hydroxy-3-(1,2,5,6-tetrahydropyridin-3-yl)phenyl)-1,2,5-thiadiazolidin-3-one 1,1-dioxide]?
**A.** IC50 (PTPN2 (i.e., TC-PTP)): ≤ 1000 nM; IC50 (PTPN1 (i.e., PTP1B)): ≤ 1000 nM

**Q.** Which IC50 (PTPN2 (i.e., TC-PTP)) does the source give for CC1NCC=C1c1ccc(O)c(N2CC(=O)NS2(=O)=O)c1F (stereo not shown) [Compound 512, 5-(2-fluoro-6-hydroxy-3-(2-methyl-2,5-dihydro-1H-pyrrol-3-yl)phenyl)-1,2,5-thiadiazolidin-3-one 1,1-dioxide] here?
**A.** > 1000 nM

**Q.** And the IC50 (PTPN1 (i.e., PTP1B))?
**A.** > 1000 nM

**Q.** With O=C1CN(c2c(O)ccc(C3=CC(=O)OC3)c2F)S(=O)(=O)N1 [Compound 513, 5-(2-fluoro-6-hydroxy-3-(5-oxo-2,5-dihydrofuran-3-yl)phenyl)-1,2,5-thiadiazolidin-3-one 1,1-dioxide] as the compound, how does the IC50 (PTPN2 (i.e., TC-PTP)) read?
**A.** ≤ 1000 nM

**Q.** And the IC50 (PTPN1 (i.e., PTP1B))?
**A.** ≤ 1000 nM

**Q.** Which IC50 (PTPN2 (i.e., TC-PTP)) does the source give for O=C1CN(c2c(O)ccc(-c3cnn(C(=O)NC4CC4)c3)c2F)S(=O)(=O)N1 [Compound 514, N-cyclopropyl-4-(3-(1,1-dioxido-4-oxo-1,2,5-thiadiazolidin-2-yl)-2-fluoro-4-hydroxyphenyl)-1H-pyrazole-1-carboxamide] here?
**A.** ≤ 1000 nM

**Q.** And the IC50 (PTPN1 (i.e., PTP1B))?
**A.** ≤ 1000 nM

**Q.** Which IC50 (PTPN2 (i.e., TC-PTP)) does the source give for CCCC1C=C(c2ccc(O)c(N3CC(=O)NS3(=O)=O)c2F)CN1 (stereo not shown) [Compound 515, 5-(2-fluoro-6-hydroxy-3-(5-propyl-2,5-dihydro-1H-pyrrol-3-yl)phenyl)-1,2,5-thiadiazolidin-3-one 1,1-dioxide] here?
**A.** ≤ 1000 nM

**Q.** What about the IC50 (PTPN1 (i.e., PTP1B)) of the same compound?
**A.** ≤ 1000 nM

**Q.** With CC(F)(F)n1cc(-c2ccc(O)c(N3CC(=O)NS3(=O)=O)c2F)cn1 [Compound 516, 5-(3-(1-(1,1-difluoroethyl)-1H-pyrazol-4-yl)-2-fluoro-6-hydroxyphenyl)-1,2,5-thiadiazolidin-3-one 1,1-dioxide] as the compound, how does the IC50 (PTPN2 (i.e., TC-PTP)) read?
**A.** ≤ 1000 nM

**Q.** And the IC50 (PTPN1 (i.e., PTP1B))?
**A.** ≤ 1000 nM

**Q.** For NC(=O)C1(c2cc(-c3ccc(O)c(N4CC(=O)NS4(=O)=O)c3F)[nH]n2)CC1 [Compound 517, 1-(5-(3-(1,1-dioxido-4-oxo-1,2,5-thiadiazolidin-2-yl)-2-fluoro-4-hydroxyphenyl)-1H-pyrazol-3-yl)cyclopropane-1-carboxamide], which IC50 (PTPN2 (i.e., TC-PTP)) is on record?
**A.** ≤ 1000 nM

**Q.** And the IC50 (PTPN1 (i.e., PTP1B))?
**A.** ≤ 1000 nM

**Q.** What does the source list for O=C1CN(c2c(O)ccc(-c3cc(C4CC4)n(C(F)F)n3)c2F)S(=O)(=O)N1 [Compound 518, 5-(3-(5-cyclopropyl-1-(difluoromethyl)-1H-pyrazol-3-yl)-2-fluoro-6-hydroxyphenyl)-1,2,5-thiadiazolidin-3-one 1,1-dioxide]?
**A.** IC50 (PTPN2 (i.e., TC-PTP)): ≤ 1000 nM; IC50 (PTPN1 (i.e., PTP1B)): ≤ 1000 nM

**Q.** Which IC50 (PTPN2 (i.e., TC-PTP)) does the source give for CC1(C)C=C(c2ccc(O)c(N3CC(=O)NS3(=O)=O)c2F)CN1 [Compound 519, 5-(3-(5,5-dimethyl-2,5-dihydro-1H-pyrrol-3-yl)-2-fluoro-6-hydroxyphenyl)-1,2,5-thiadiazolidin-3-one 1,1-dioxide] here?
**A.** > 1000 nM

**Q.** And the IC50 (PTPN1 (i.e., PTP1B))?
**A.** > 1000 nM

**Q.** NC(=O)Cc1cc(-c2ccc(O)c(N3CC(=O)NS3(=O)=O)c2F)[nH]n1 [Compound 520, 2-(5-(3-(1,1-dioxido-4-oxo-1,2,5-thiadiazolidin-2-yl)-2-fluoro-4-hydroxyphenyl)-1H-pyrazol-3-yl)acetamide] was tested. Which IC50 (PTPN2 (i.e., TC-PTP)) did it give?
**A.** ≤ 1000 nM

**Q.** What about the IC50 (PTPN1 (i.e., PTP1B)) of the same compound?
**A.** ≤ 1000 nM

**Q.** For O=C1CN(c2c(O)ccc(C3=CCN(CC(F)F)C3)c2F)S(=O)(=O)N1 [Compound 521, 5-(3-(1-(2,2-difluoroethyl)-2,5-dihydro-1H-pyrrol-3-yl)-2-fluoro-6-hydroxyphenyl)-1,2,5-thiadiazolidin-3-one 1,1-dioxide], which IC50 (PTPN2 (i.e., TC-PTP)) is on record?
**A.** ≤ 1000 nM

**Q.** What about the IC50 (PTPN1 (i.e., PTP1B)) of the same compound?
**A.** ≤ 1000 nM

**Q.** Which IC50 (PTPN2 (i.e., TC-PTP)) does the source give for O=C1CN(c2c(O)ccc(C3=CC(CC4CC4)NC3)c2F)S(=O)(=O)N1 (stereo not shown) [Compound 522, 5-(3-(5-(cyclopropylmethyl)-2,5-dihydro-1H-pyrrol-3-yl)-2-fluoro-6-hydroxyphenyl)-1,2,5-thiadiazolidin-3-one 1,1-dioxide] here?
**A.** ≤ 1000 nM

**Q.** And the IC50 (PTPN1 (i.e., PTP1B))?
**A.** ≤ 1000 nM
